Molecules are shown by their SMILES. Structures can show the parent of a compound that is named as a salt.

The record followed here is patent US20060205769A1, “Piperidine or 8-aza-bicyclo[3.2.1]oct-3-yl derivatives useful as modulators of chemokine receptor activity” (priority 2003, published 2006).

This assay deals with T1, recombinant human CCR5 receptor (Homo sapiens, UniProt P51681).
T1 construct: expressed in transfected cells; host or cells: Chinese hamster ovary (CHO) cells; membranes
T1 sequence (P51681 whole entry): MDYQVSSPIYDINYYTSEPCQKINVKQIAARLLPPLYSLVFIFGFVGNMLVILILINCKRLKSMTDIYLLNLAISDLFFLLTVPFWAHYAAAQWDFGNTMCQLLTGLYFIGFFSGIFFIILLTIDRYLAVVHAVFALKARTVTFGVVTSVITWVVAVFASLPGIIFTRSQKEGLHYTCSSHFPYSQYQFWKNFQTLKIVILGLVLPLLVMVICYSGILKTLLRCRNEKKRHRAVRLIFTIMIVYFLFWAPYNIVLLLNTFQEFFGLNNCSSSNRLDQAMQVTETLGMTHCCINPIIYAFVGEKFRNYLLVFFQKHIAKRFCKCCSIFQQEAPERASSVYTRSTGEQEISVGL
The assay is described as follows: in vitro radioligand binding assay: inhibition of binding of iodinated MIP-1α to membranes of CHO cells expressing CCR5 (scintillation proximity). To be noted: displacement of 0.1 nM iodinated MIP-1α; negative log (base 10) of IC50; average if tested more than once. As to the method: The ability of compounds to inhibit the binding of MIP-1α was assessed by an in vitro radioligand binding assay. Membranes were prepared from Chinese hamster ovary cells which expressed the recombinant human CCR5 receptor. These membranes were incubated with 0.1 nM iodinated MIP-1α, scintillation proximity beads and various concentrations of the compounds of the invention in 96-well plates. The amount of iodinated MIP-1α bound to the receptor was determined by scintillation counting. Competition curves were obtained for compounds and the concentration of compound which displaced 50% of bound iodinated MIP-1α was calculated (IC50).
In Table IV the results are presented as Pic50 values. A Pic50 value is the negative log (to base 10) of the IC50 result, so an IC50 of 1 μM (that is 1×10^−6M) gives a Pic50 of 6. If a compound was tested more than once then the data below is an average of the probative tests results.
Background: In a scintillation proximity assay essentially only radioactivity close to the scintillant gives light.
Usually IC50 stands for the point on the concentration scale where inhibition reaches its midpoint. Consider `CS(=O)(=O)N1CCC([C@@H](CCN2CCC(CCS(=O)(=O)C3CCNCC3)CC2)c2cc(F)cc(F)c2)CC1` [Table I Compound 2], for which the 50% inhibitory concentration (IC50) was 39.8 nM.

Consider `CS(=O)(=O)N1CCC([C@@H](CCN2CCC(CCS(=O)(=O)C3CCN(S(=O)(=O)C(F)(F)F)CC3)CC2)c2cc(F)cc(F)c2)CC1` [Table I Compound 3], for which the half-maximal inhibitory concentration (IC50) was 3.98 nM.

In the case of `CS(=O)(=O)c1ccc([C@@H](CCN2CCC(CCS(=O)(=O)N3CCCCC3)CC2)c2cc(F)cc(F)c2)cc1` [Table III Compound 1, (R)-1-{3-(3,5-difluorophenyl)-3-[4-(methylsulfonyl)phenyl]propyl}-4-[2-(piperidin-1-ylsulfonyl)ethyl]piperidine hydrochloride], the half-inhibitory concentration (IC50) was 3.16 nM.
